In patent US12411143B2, “CD146 and uses thereof as a biomarker and as a therapeutic target in the diagnosis and treatment of fibrosis” (ASSISTANCE PUBLIQUE HÔPITAUX DE MARSEILLE, priority 2018, dated 2025):

Assays:
[1] = system: human renal fibroblasts; test: α-SMA and vimentin mRNA expression in primary culture of human renal fibroblasts; assay type: cell-based; conditions: sCD146 50 ng/ml, versus control without treatment
Experimental: The effect of sCD146 (50 ng/ml) was examined on primary culture from human fibroblasts. The effect of 500 ng/ml anti-sCD146 mAb administrated either alone (Ac) or with sCD146.
Results are mean values +/−SE of 3 experiments and expressed as fold change versus control condition without treatment.
The effect of anti-sCD146 treatment was observed on the mRNA expression of α-SMA and vimentin in human renal fibroblast in (in vitro) culture.

[2] = system: Human cardiac fibroblasts (HCFs); test: Cell proliferation of human cardiac fibroblasts (BrdU assay); assay type: cell-based
Experimental: Human cardiac fibroblasts (HCFs) (PromoCell) are grown in Fibroblast Growth Medium 3 Supplement Pack (PromoCell) in an environment at 37° C. with controlled atmosphere. The HCFs are grown between passages 3 and 7.
To perform the stimulations, the fibroblasts are seeded at a density of 30 000 cells/cm^2 in complete culture medium. After 24 hours of adhesion, the cell culture medium is replaced with medium not containing growth factor (minimal medium) for 4 hours.
This medium is then replaced with minimal medium supplemented with 25, 50, 75 or 100 ng/mL of CD146s or with 2.5, 5 or 10 ng/mL of TGF-β for the proliferation study.
Cell proliferation is determined using a proliferation kit (BrdU Assay, Roche). An anti-BrdU antibody diluted 1/100 in its diluent solution is incubated for 90 minutes at 37° C. After removal and rinsing of excess antibody, a second antibody directed specifically against anti-BrdU and coupled to peroxidase is incubated for 30 minutes at room temperature and then removed. Detection is performed by the addition of 100 μL of enzyme substrate. […] Staining intensity, proportional to BrdU incorporation, is read on a spectrophotometer at 450 nm. The results are calculated by subtracting the background noise observed in a culture well containing no cells but having received the same amount of BrdU. Percentage of proliferation is then calculated for each condition. […]

sCD146: recombinant human soluble form of CD146 corresponding to the shed sCD146, obtained from Biocytex
α-SMA and vimentin mRNA expression [1]: increase in α-SMA and vimentin mRNA expression | cell proliferation of cardiac fibroblasts ([2]; 25, 50, 75 or 100 ng/mL of CD146s): significant, dose-dependent increase in cell proliferation | amount giving the maximum pro-proliferative effect ([2]; HCFs): 50 ng/mL
